Measured values from publication PMC3038857, “Using Nuclear Receptor Activity to Stratify Hepatocarcinogens” (PLoS ONE, 2011).

Assays:
CYP3A4 = experiment: CLZD_CYP3A4: Change in expression of CYP3A4 (primary human hepatocytes); type: cell-based; conditions: 24 hr
Summary of the method: (§1)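 Primary human hepatocyte cultures were exposed to test chemicals at 5 concentrations (0.004-40 µM) for 6, 24 or 48 hr.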

PXR Human (NR1I2) = target: T1, PXR Human (NR1I2) (Homo sapiens, UniProt O75469); experiment: NCGC_PXR_Agonist_human: GAL4 BLAM Reporter gene assay: PXR Human; type: cell-based; conditions: agonist mode
T1 sequence (O75469 146-434 limits assumed): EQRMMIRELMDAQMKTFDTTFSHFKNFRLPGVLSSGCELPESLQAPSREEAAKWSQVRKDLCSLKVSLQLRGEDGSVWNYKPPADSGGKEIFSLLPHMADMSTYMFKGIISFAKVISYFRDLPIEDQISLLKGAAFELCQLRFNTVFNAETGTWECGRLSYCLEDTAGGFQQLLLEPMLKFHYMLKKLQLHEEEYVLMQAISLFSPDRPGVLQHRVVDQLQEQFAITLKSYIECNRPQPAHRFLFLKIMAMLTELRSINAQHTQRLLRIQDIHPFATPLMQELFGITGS
Procedure: These assays measure binding constants and enzyme inhibition values for nuclear receptors. The targets include [drawing 67] , [drawing 68] , [drawing 69] , [drawing 70] , [drawing 71] , [drawing 72] , [drawing 73] , [drawing 74] , [drawing 75] and [drawing 76] . Each of the nuclear receptor targets was measured in agonist mode. Assays were run at the NIH Chemical Genomics Center (Rockville, MD).
Cell-based HTS Assays: These assays measuring binding constants and enzyme inhibition values for nuclear receptors. The targets include AR, ER, FXR, LXR, PPARα, PPARδ, PPARγ, RXRα, RXRβ and PXR. Each of the nuclear receptor targets was measured in both agonist and antagonist mode, but the antagonist data is still undergoing analysis due to possible interference between cytotoxicity and assay activity, so antagonist mode data were not used in the present analysis. Assays were run at the NIH Chemical Genomics Center (Rockville, MD) as part of the Tox21 collaboration. […] The R^2 was required to be ≥0.5. Values where only the highest concentration exceeded 50% activity were excluded to eliminate weak or false positives. Detailed description of the methods, data and analysis methods for this dataset will be presented in a separate publication.

PXR (NR1I2) [1] = target: T2, PXR (NR1I2) (Homo sapiens, UniProt O75469); experiment: ATG_PXRE_CIS: Factorial reporter gene assay (HepG2); type: cell-based; design: endogenous in cells; host or cells: HepG2; conditions: HepG2
T2 sequence (O75469 1-434): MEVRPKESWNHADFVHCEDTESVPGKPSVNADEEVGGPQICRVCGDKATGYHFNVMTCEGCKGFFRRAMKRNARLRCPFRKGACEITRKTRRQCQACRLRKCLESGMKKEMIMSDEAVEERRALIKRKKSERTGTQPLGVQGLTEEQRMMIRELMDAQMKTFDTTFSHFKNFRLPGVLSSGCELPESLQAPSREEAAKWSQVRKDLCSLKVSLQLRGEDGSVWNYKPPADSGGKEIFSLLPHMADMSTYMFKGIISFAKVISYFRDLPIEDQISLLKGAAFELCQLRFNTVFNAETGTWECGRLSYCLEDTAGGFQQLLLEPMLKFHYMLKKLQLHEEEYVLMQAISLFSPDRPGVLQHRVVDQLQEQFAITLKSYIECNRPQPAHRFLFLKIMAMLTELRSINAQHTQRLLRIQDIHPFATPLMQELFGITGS
Summary of the method: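 Transfected HepG2 line; multiplexed reporter read-out. PXRE = cis library (48 TF sites); ERRg/FXR/PPARg = trans one-hybrid library (25 units). Dose series of 7, MTC downward by 3x.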

[2] = target: T3, ESR1 (estrogen receptor 1) (Homo sapiens, UniProt P03372); experiment: ATG_ERa_TRANS: Factorial reporter gene assay (HepG2); type: cell-based; conditions: HepG2
T3 construct: expressed in transfected cells; host or cells: HepG2
Procedure: A multiple reporter transcription unit (MRTU) library consisting of 48 transcription factor binding sites was transfected into the HepG2 human liver hepatoma cell line. In addition to the cis-acting reporter genes (CIS), a modification of the approach was used to generate a trans-system (TRANS) with a mammalian one-hybrid assay consisting of an additional 25 MRTU library reporting the activity of nuclear receptor super-family members. […] These assays were performed by Attagene Inc. (Morrisville NC) under contract to EPA.
In addition to the cis-acting reporter genes (CIS), a modification of the approach was used to generate a trans-system (TRANS) with a mammalian one-hybrid assay consisting of an additional 25 MRTU library reporting the activity of nuclear receptor super-family members. […] Chemicals were then tested in the CIS and TRANS assays at seven concentrations starting at the MTC and followed by three-fold serial dilutions. These assays were performed by Attagene Inc. (Morrisville NC) under contract to EPA. Detailed description of the methods, data and analysis methods for this dataset will be presented in a separate publication.

Mouse Liver [3] = conditions: mouse, chronic study, ref ToxRefDB; cited from earlier work
PXR (NR1I2) [4] = target: T2, PXR (NR1I2); experiment: ATG_PXR_TRANS: Factorial reporter gene assay (HepG2); type: cell-based; design: endogenous in cells; host or cells: HepG2; conditions: HepG2
Summary of the method: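 Seven concentrations per chemical, three-fold dilutions down from the MTC, were tested in HepG2 hepatoma cells. Those cells carried a multiple reporter transcription unit library, read either as cis transcription-factor-site reporters or as a trans mammalian one-hybrid panel for nuclear receptors.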

CYP2B6 = experiment: CLZD_CYP2B6: Change in expression of CYP2B6 (primary human hepatocytes); type: cell-based; conditions: 24 hr
Summary of the method: as §1

CYP1A1 = experiment: CLZD_CYP1A1: Change in expression of CYP1A1 (primary human hepatocytes); type: cell-based; conditions: 24 hr
Summary of the method: as §1

Mouse Liver [5] = conditions: mouse, chronic study, ref ToxRefDB; cited from earlier work; remark: listed apart in the source
CYP1A2 = experiment: CLZD_CYP1A2: Change in expression of CYP1A2 (primary human hepatocytes); type: cell-based; conditions: 24 hr
Summary of the method: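 Read-out: mRNA change by multiplexed quantitative nuclease protection assay. Primary human hepatocytes; 5 concentrations, 0.004-40 µM; exposures 6, 24, 48 hr.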

Rat Liver [6] = conditions: rat, chronic study, ref ToxRefDB; cited from earlier work
ABCB1 = experiment: CLZD_ABCB1: Change in expression of ABCB1 (primary human hepatocytes); type: cell-based; conditions: 24 hr
Procedure: This is a collection of multiplexed gene expression assays focused on Phase I and II xenobiotic metabolizing enzymes and transporters. Human primary cell cultures were treated with chemicals at 5 concentrations (0.004-40 [drawing 42] M) for 6, 24 and 48 hr. Concentration- and time-response profiles of chemicals were measured by the expression of key nuclear receptor target genes, activities of CYP1A enzymes (EROD), and cell morphology. Fourteen gene targets were monitored by quantitative nuclease protection assay including: six representative cytochrome P-450 genes, four hepatic transporters, three Phase II conjugating enzymes, and one endogenous metabolism gene involved in cholesterol synthesis. The target genes associated with nuclear receptor pathways are as follows: [drawing 43] and [drawing 44] with [drawing 45]; [drawing 46] , [drawing 47] , [drawing 48] , [drawing 49] , [drawing 50] and [drawing 51] with [drawing 52]; [drawing 53] , [drawing 54] , [drawing 55] and [drawing 56] with [drawing 57]; [drawing 58] with [drawing 59]; and [drawing 60] with [drawing 61] . Assays were run in primary human hepatocyte cultures by CellzDirect Invitrogen Inc. (Durham, NC), in collaboration with EPA.
Multiplexed Gene Expression in Human Primary Hepatocytes: This is a collection of multiplexed gene expression assays focused on Phase I and II metabolic enzymes and transporters. […] Fourteen gene targets were monitored by quantitative nuclease protection assay: six representative cytochrome P450 genes, four hepatic transporters, three Phase II conjugating enzymes, and one endogenous metabolism gene involved in cholesterol synthesis. Cells were exposed at 5 concentrations (0.004-40 µM) for 6, 24 or 48 hr. Gene targets are sentinels for five nuclear receptor signaling pathways: AhR, CAR, PXR, FXR, and PPARα. All gene are associated with nuclear receptor pathways: CYP1A1 and CYP1A2 with AHR; ABCB1, ABCG2, CYP2B6, CYP2C9, CYP2C19 and UGT1A1 with CAR; CYP3A4, GSTA2, SLCO1B1 and SULT2A1 with PXR; HMGCS2 with PPARA; and ABCB11 with FXR. […] Detailed description of the methods, data and analysis methods for this dataset will be presented in a separate publication.

Rat Liver [7] = conditions: rat, chronic study, ref ToxRefDB; cited from earlier work; remark: listed apart in the source
Rat Liver [8] = conditions: rat, chronic study, ref ToxRefDB; cited from earlier work; remark: listed apart in the source

T3 sequence (P03372 whole entry): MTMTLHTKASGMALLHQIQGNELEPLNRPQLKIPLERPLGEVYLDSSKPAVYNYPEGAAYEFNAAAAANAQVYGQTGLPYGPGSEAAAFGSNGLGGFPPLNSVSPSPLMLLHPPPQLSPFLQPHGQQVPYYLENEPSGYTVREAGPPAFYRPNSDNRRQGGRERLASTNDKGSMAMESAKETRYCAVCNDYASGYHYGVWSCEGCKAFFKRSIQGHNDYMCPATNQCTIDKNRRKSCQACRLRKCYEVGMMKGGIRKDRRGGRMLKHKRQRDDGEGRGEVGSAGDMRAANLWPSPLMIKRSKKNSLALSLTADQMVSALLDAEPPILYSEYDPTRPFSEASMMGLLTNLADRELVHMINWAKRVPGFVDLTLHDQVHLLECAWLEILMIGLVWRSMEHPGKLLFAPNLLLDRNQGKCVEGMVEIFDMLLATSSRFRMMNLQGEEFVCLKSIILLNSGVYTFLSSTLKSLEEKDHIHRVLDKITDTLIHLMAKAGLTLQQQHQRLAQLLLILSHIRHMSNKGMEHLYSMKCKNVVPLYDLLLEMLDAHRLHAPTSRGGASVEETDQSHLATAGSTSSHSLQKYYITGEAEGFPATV

Q: What does the source list for `CCOc1cc(Oc2ccc(C(F)(F)F)cc2Cl)ccc1[N+](=O)[O-]` [r233]?
A: CLZD_CYP3A4_24 (CYP3A4): 5.072; NCGC_PXR_Agonist_human (PXR Human (NR1I2)): 4.683; ATG_PXRE_CIS (PXR (NR1I2) [1]): 4.432; ATG_ERa_TRANS [2]: 5.102; CHR_Mouse_Liver_2_PreneoplasticLesion (Mouse Liver [3]): 6; ATG_PXR_TRANS (PXR (NR1I2) [4]): 4.699; CLZD_CYP2B6_24 (CYP2B6): 5.028; CLZD_CYP1A1_24 (CYP1A1): 5.52; CHR_Mouse_Liver_1_AnyLesion (Mouse Liver [5]): 6; CLZD_CYP1A2_24 (CYP1A2): 5.409

Q: Which results are given for `CC(C)(C)[C@H](O)[C@H](Cc1ccc(Cl)cc1)n1cncn1` [r235]?
A: CHR_Rat_Liver_1_AnyLesion (Rat Liver [6]): 6; ATG_PXRE_CIS (PXR (NR1I2) [1]): 4.824; CLZD_ABCB1_24 (ABCB1): 5.316; CHR_Rat_Liver_3_NeoplasticLesion (Rat Liver [7]): 0; CLZD_CYP2B6_24 (CYP2B6): 5.403; CHR_Rat_Liver_2_PreneoplasticLesion (Rat Liver [8]): 0; CLZD_CYP1A1_24 (CYP1A1): 5.242; CHR_Mouse_Liver_1_AnyLesion (Mouse Liver [5]): 6
